Drawing on DBAASP, this text covers MIC for nine compounds.

For orientation: MIC means the smallest concentration in the dilution series that meets the test's criterion for growth inhibition. A low value points to inhibition by little substance.

Test systems include Leuconostoc lactis; Enterobacter cloacae; Pasteurella multocida; Escherichia coli; Enterococcus faecalis; Micrococcus luteus; Pseudomonas aeruginosa; Bacillus cereus; Streptococcus uberis; Listeria innocua; Escherichia coli K-12; Klebsiella pneumoniae; Micrococcus luteus A270; Staphylococcus aureus; Bacillus anthracis; Bacillus subtilis; Escherichia coli B; Bacillus subtilis 168.

Experiment in all cases: ≥ marks a high value that may be exact or a test limit, other limits are often not marked, values filed in µg/mL are converted to µM
The test system of assay [1] is Staphylococcus epidermidis.
Assay [2] concerns Staphylococcus aureus ATCC 25923.
Assay [3] relates to Staphylococcus aureus ATCC 29213.
For assay [4], the system named is Staphylococcus aureus NCTC 8325-4.
Assay [5] has as its system Pseudomonas aeruginosa PAO1.
Assay [6] relates to Escherichia coli ATCC 25922.
Assay [7] concerns Pseudomonas aeruginosa ATCC 27853.
Assay [8] deals with Salmonella enterica subsp. enterica serovar Typhi.
Assay [9] concerns Candida albicans ATCC 90028.
The subject of assay [10] is Candida albicans ATCC 2002.
Assay [11] deals with Staphylococcus aureus ATCC 2592.

Molecules are shown by their SMILES. In brackets after ≈: the same amount, converted by molar mass.

As to `CC[C@H](C)[C@H](NC(=O)[C@@H](NC(=O)[C@@H]1CCCN1C(=O)[C@H](C)NC(=O)[C@@H](NC(=O)[C@H](Cc1cnc[nH]1)NC(=O)[C@@H]1CCCN1C(=O)[C@H](CC(C)C)NC(=O)[C@H](CC(C)C)NC(=O)[C@H](Cc1cnc[nH]1)NC(=O)[C@H](CCCCN)NC(=O)[C@H](C)NC(=O)[C@@H](NC(=O)[C@H](CO)NC(=O)CNC(=O)[C@H](CC(C)C)NC(=O)[C@@H](NC(=O)[C@H](CO)NC(=O)[C@H](Cc1ccccc1)NC(=O)[C@H](CC(C)C)NC(=O)CN)C(C)C)C(C)C)C(C)C)[C@@H](C)CC)C(=O)N[C@@H](C)C(=O)N[C@@H](CCC(=O)O)C(=O)N[C@@H](CCCCN)C(=O)N[C@@H](CC(C)C)C(N)=O` [GLFSVLGSVAKHLLPHVAPIIAEKL], the MIC in the assay with Leuconostoc lactis is 1.15 µM (≈ 3 µg/mL); in [1], 4.6 µM (≈ 12 µg/mL); in the assay on Enterobacter cloacae, not below 38.3 µM; in the assay on Pasteurella multocida, 9.58 µM (≈ 25 µg/mL); in the assay with Escherichia coli, more than 38.3 µM; against Enterococcus faecalis, not below 38.3 µM. In addition, the MIC in assay [2] was 19.2 µM (≈ 50 µg/mL); in the assay with Micrococcus luteus, 4.6 µM (≈ 12 µg/mL); against Pseudomonas aeruginosa, more than 38.3 µM; against Bacillus cereus, not below 38.3 µM; in the assay on Streptococcus uberis, 9.58 µM (≈ 25 µg/mL); in [3] it was 4.6 µM (≈ 12 µg/mL). In the assay with Listeria innocua, the MIC worked out at 9.58 µM (≈ 25 µg/mL).

For `CC(C)C[C@H](NC(=O)[C@H](CC(C)C)NC(=O)[C@H](CCCCN)NC(=O)[C@H](CCCCN)NC(=O)[C@H](CC(C)C)NC(=O)[C@H](CC(C)C)NC(=O)[C@H](CCCCN)NC(=O)[C@H](CCCCN)NC(=O)[C@@H](N)CC(C)C)C(=O)N[C@@H](CCCCN)C(N)=O` [LKKLLKKLLK], the MIC is 31.3 µM (≈ 38.3 µg/mL) against Escherichia coli K-12, not below 500 µM in [4], 62.5 µM (≈ 76.5 µg/mL) in [5] and more than 500 µM against Klebsiella pneumoniae.

Consider `CC(C)C[C@H](NC(=O)[C@H](CO)NC(=O)[C@H](Cc1cnc[nH]1)NC(=O)[C@H](CO)NC(=O)[C@H](CC(C)C)NC(=O)[C@@H](N)CC(C)C)C(=O)O` [LLSHSL], for which the MIC in the assay on Escherichia coli is 46.8 µM (≈ 31.3 µg/mL); against Micrococcus luteus A270, not below 46.8 µM; against Listeria innocua, not below 187 µM.

As to `CC(C)C[C@H](NC(=O)[C@H](CCCCN)NC(=O)[C@H](Cc1ccccc1)NC(=O)[C@H](CC(C)C)NC(=O)[C@@H](NC(=O)[C@@H]1CCCN1C(=O)[C@@H](N)CC(C)C)C(C)C)C(=O)N[C@@H](C)C(=O)N[C@@H](CO)C(=O)N[C@@H](CCCCN)C(=O)N[C@H](C(=O)N[C@@H](Cc1ccccc1)C(=O)N1CCC[C@H]1C(=O)N[C@@H](C)C(=O)N[C@H](C(=O)N[C@@H](Cc1ccccc1)C(=O)N[C@@H](CO)C(=O)N[C@@H](CO)C(=O)N[C@@H](CC(C)C)C(=O)N[C@@H](CCCCN)C(=O)O)C(C)C)C(C)C` [LPVLFKLASKVFPAVFSSLK], the MIC is 58.4 µM (≈ 128 µg/mL) in the assay on Staphylococcus aureus, not below 58.4 µM with Bacillus anthracis, 117 µM (≈ 256 µg/mL) in the assay on Escherichia coli and 29.2 µM (≈ 64 µg/mL) against Bacillus cereus.

Regarding `CC[C@H](C)[C@H](NC(=O)[C@H](CC(C)C)NC(=O)[C@H](CCCCN)NC(=O)[C@H](CCSC)NC(=O)[C@@H](NC(=O)[C@H](C)NC(=O)[C@H](C)NC(=O)[C@H](CCCN=C(N)N)NC(=O)[C@H](CCCCN)NC(=O)[C@H](Cc1ccccc1)NC(=O)[C@H](Cc1ccccc1)NC(=O)[C@H](CC(C)C)NC(=O)[C@@H](NC(=O)[C@H](C)NC(=O)CNC(=O)[C@@H](NC(=O)[C@H](CO)NC(=O)[C@@H]1CCCN1C(=O)[C@@H](NC(=O)[C@@H](N)CO)C(C)C)C(C)C)C(C)C)C(C)C)C(=O)O` [SVPSVGAVLFFKRAAVMKLI], the MIC against Staphylococcus aureus was more than 120 µM; with Bacillus anthracis, not below 120 µM; in the assay with Escherichia coli it was more than 120 µM; in the assay on Bacillus cereus, not below 120 µM.

With `CC(C)C[C@H](NC(=O)[C@H](CCCCN)NC(=O)[C@H](CCCN=C(N)N)NC(=O)[C@H](Cc1ccccc1)NC(=O)[C@H](Cc1ccccc1)NC(=O)[C@H](CCCCN)NC(=O)[C@H](CCCCN)NC(=O)[C@H](Cc1ccccc1)NC(=O)[C@H](CCCN=C(N)N)NC(=O)[C@H](CCCCN)NC(=O)[C@@H](N)C(C)C)C(=O)N[C@@H](CCCCN)C(=O)N[C@@H](CCCCN)C(=O)N[C@@H](CO)C(=O)N[C@H](C(=O)N[C@@H](CCCCN)C(=O)N[C@@H](CCCCN)C(N)=O)C(C)C` [VKRFKKFFRKLKKSVKK], the MIC in assay [6] was 3.64 µM (≈ 8 µg/mL); in assay [7], 29.1 µM (≈ 64 µg/mL); in the assay with Enterobacter cloacae, not below 58.3 µM; in assay [8] it was 1.82 µM (≈ 4 µg/mL); in the assay with Staphylococcus aureus, 58.3 µM (≈ 128 µg/mL); against Escherichia coli, 29.1 µM (≈ 64 µg/mL). Further, the MIC in assay [2] was determined as 0.911 µM (≈ 2 µg/mL); in [9], 29.1 µM (≈ 64 µg/mL); in the assay on Pseudomonas aeruginosa, 7.29 µM (≈ 16 µg/mL); against Bacillus subtilis, 29.1 µM (≈ 64 µg/mL).

Take `CC(C)C[C@H](NC(=O)[C@H](CCCCN)NC(=O)[C@H](CCCN=C(N)N)NC(=O)[C@H](Cc1ccccc1)NC(=O)[C@H](Cc1ccccc1)NC(=O)[C@H](CCCCN)NC(=O)[C@H](CCCCN)NC(=O)[C@H](Cc1ccccc1)NC(=O)[C@H](CCCN=C(N)N)NC(=O)[C@H](CCCCN)NC(=O)[C@@H](N)C(C)C)C(=O)N[C@@H](CCCCN)C(=O)N[C@@H](CCCCN)C(=O)N[C@@H](CO)C(=O)N[C@H](C(=O)N[C@@H](CCCCN)C(N)=O)C(C)C` [VKRFKKFFRKLKKSVK]: the MIC in [6] turned out to be 1.93 µM (≈ 4 µg/mL); in assay [7], 31 µM (≈ 64 µg/mL); against Enterobacter cloacae, 31 µM (≈ 64 µg/mL); in assay [8] it was 1.93 µM (≈ 4 µg/mL); in the assay with Staphylococcus aureus, 61.9 µM (≈ 128 µg/mL); in the assay with Escherichia coli it was 31 µM (≈ 64 µg/mL). The MIC in [2] is 0.967 µM (≈ 2 µg/mL); in [9], 31 µM (≈ 64 µg/mL); in the assay with Pseudomonas aeruginosa it was 7.74 µM (≈ 16 µg/mL); against Bacillus subtilis, 31 µM (≈ 64 µg/mL).

With `CC(C)C[C@H](NC(=O)[C@H](CCCCN)NC(=O)[C@H](CCCN=C(N)N)NC(=O)[C@H](Cc1ccccc1)NC(=O)[C@H](Cc1ccccc1)NC(=O)[C@H](CCCCN)NC(=O)[C@H](CCCCN)NC(=O)[C@H](Cc1ccccc1)NC(=O)[C@H](CCCN=C(N)N)NC(=O)[C@H](CCCCN)NC(=O)[C@@H](N)C(C)C)C(=O)N[C@@H](CCCCN)C(=O)N[C@@H](CCCCN)C(=O)N[C@@H](CO)C(=O)N[C@H](C(N)=O)C(C)C` [VKRFKKFFRKLKKSV], the MIC in assay [10] came to 9.67 µM (≈ 18.7 µg/mL); in [7] it was 16.5 µM (≈ 32 µg/mL); against Enterobacter cloacae, 4.12 µM (≈ 8 µg/mL); in assay [8], 1.03 µM (≈ 2 µg/mL); in the assay on Staphylococcus aureus it was 8.25 µM (≈ 16 µg/mL); against Escherichia coli, 8.25 µM (≈ 16 µg/mL). The MIC is 0.516 µM (≈ 0.999 µg/mL) in assay [2]; not below 33 µM in assay [9]; 8.25 µM (≈ 16 µg/mL) against Pseudomonas aeruginosa; not below 51.6 µM in [11]; not below 38.7 µM in the assay with Bacillus subtilis.

Regarding `CC[C@H](C)[C@H](NC(=O)[C@H](CCCCN)NC(=O)[C@H](CCCCN)NC(=O)[C@H](CC(C)C)NC(=O)[C@@H](NC(=O)[C@H](CCCCN)NC(=O)[C@H](CCCCN)NC(=O)[C@H](Cc1c[nH]c2ccccc12)NC(=O)[C@H](CC(N)=O)NC(=O)[C@@H](N)C(C)C)C(C)C)C(=O)N[C@H](C(=O)N[C@@H](CCCCN)C(=O)N[C@H](C(=O)N[C@@H](C)C(=O)N[C@@H](CCCCN)C(N)=O)C(C)C)[C@@H](C)CC` [VNWKKVLKKIIKVAK], the MIC came out at 0.7 µM (≈ 1.26 µg/mL) in the assay with Escherichia coli B, 15.6 µM (≈ 28 µg/mL) against Staphylococcus aureus, 0.7 µM (≈ 1.26 µg/mL) with Bacillus subtilis 168 and 19 µM (≈ 34.1 µg/mL) with Pseudomonas aeruginosa.
